Measured values taken from patent US20230122932A1, “NEW SEX PHEROMONE COMPONENTS FOR THE FALL ARMYWORM, SPODOPTERA FRUGIPERDA” (North Carolina State University, priority 2020, published 2023).
“Also recorded” adds a separate entry of the source.

How the values were obtained:
male FAW [1] = test: Field assays, Hartstack traps in cotton field, 2-component pheromone mix with nonanal; format: in vivo, Spodoptera frugiperda
Experimental: Field Assays: Formulations were tested under field conditions. Z9-14:OAc and Z7-12:OAc were diluted in hexane and 100 μL of the solution containing 100 μg and 0.58 μg of the respective compounds was loaded to a rubber septum (11 mm; Wheaton, DWK Life Sciences, Millville, N.J., United States of America). The septum was left inside a fume hood for 15 hr for the solvent to evaporate and then tested in field assays. Nonanal was diluted in paraffin oil and 100 μL of the solution was transferred to a vial dispenser. The solution contained either 0.1 μg or 1 μg, which corresponded to 0.1% and 1% of the amount of Z9-14:OAc. This dispenser constituted a 2 ml borosilicate vial covered with aluminum foil and contained 50 mg of deactivated glass wool. The vial was loaded with a nonanal solution and capped. […] A straightened metal paper clip pierced through the small cup of a pheromone-loaded rubber septum and was tied around the neck of a nonanal-loaded vial. This set was held by a steel alligator clip installed inside a Hartstack trap. We tested the attraction of male FAW to the following treatments: • Control: clean hexane loaded into a rubber septum and clean paraffin oil in a, vial dispenser • Pheromone mix: 100 μj of Z9-14:OAc and 0.58 μg of Z7-12:OAc in rubber septum and clean paraffin oil in vial dispenser • Pheromone 4-0.1% Nonanal: Pheromone mix in rubber septum and 0.1 μg of nonanal in vial dispenser • Pheromone+1% Nonanal: Pheromone mix in rubber septum and 1 μg of nonanal in vial dispenser
The Hartstack trap consisted of a conical body made of metal mesh with a removal top (H: 15 cm, ø=14 cm) in which males were trapped. Traps stood over the canopy of crops on rebars (L: 1.5 m) that were fixed to the ground. Traps were set for one week in a cotton field along the crop row, 15 m apart. Each experimental block consisted of 4 traps 15 m from each other. The next block was set 15 m from the first block and parallel to it. Each treatment was replicated once within a block and assigned randomly to trap positions. The number of trapped male FAW moths and other species were counted daily and traps were rotated.
A second study repeated the same procedure described above but increased the amount of Z9-14:OAc and Z7-12:OAc in the mix to 1000 μg and 5.8 μg, respectively, and nonanal to 10, 20 and 40 μg. The attraction of male FAW was tested to the following treatments: • Control: clean hexane loaded into a rubber septum and clean paraffin oil loaded into a vial dispenser • Pheromone mix: 1000 μg of Z9-14:OAc and 5.8 μg of Z7-12:OAc in rubber septum and clean paraffin oil in vial dispenser (no nonanal). • Pheromone 4-1% Nonanal: Pheromone mix in rubber septum and 10 μg of nonanal in vial dispenser. • Pheromone+2% Nonanal: Pheromone mix in rubber septum and 20 μg of nonanal in vial dispenser. • Pheromone+4% Nonanal: Pheromone mix in rubber septum and 40 μg of nonanal in vial dispenser.
(§1) Statistical analysis: All statistical analyses were performed in R (version 3.5.1). Behavioral responses of male FAW to formulations in the olfactometer were analyzed by binomial generalized linear model. Numbers of male FAW catches in the same day were combined per treatment and analyzed by Poisson generalized linear model (GLM). Treatments that had no catches were not included in the analyses.

male FAW [2] = test: Field test with commercial lures plus nonanal, Hartstack traps in sorghum crop; format: in vivo, Spodoptera frugiperda
Experimental: Field test with commercial formulation: The effect of adding nonanal to commercial formulations was tested in a sorghum crop for five days. Lures were purchased from two commercial suppliers, referred to herein as “Commercial Supplier A” (L105A from Seemly Biologicals Inc., Billings, Mont., United States of America) and “Commercial Supplier B” (FAW 3143 from Trécé, Adair, Okla., United States of America). These lures were formulated by the respective companies in rubber septa. Nonanal was formulated in the same way as described above and a straightened metal paper clip held together both the nonanal-loaded vial and the commercial lure. This set was installed inside a Hartstack trap and traps were positioned in the same manner described above. The attraction of male FAW to the following treatments was tested: • Commercial Supplier B lure combined with clean paraffin oil in vial dispenser (no nonanal). • Commercial. Supplier B lure combined with 20 μg of nonanal in vial dispenser. • Commercial Supplier A lure combined with clean paraffin oil in vial dispenser (no nonanal). • Commercial Supplier A lure combined with 20 μg of nonanal in vial dispenser.
A second study was conducted in the same crop over a second five-day period, aimed to investigate different doses of nominal in combination with Commercial Supplier A lures. Using the same procedure described above, the attraction of male FAW was tested to the following treatments: • Commercial. Supplier A lure combined with clean paraffin oil in vial dispenser (no nonanal). • Commercial Supplier A lure combined with 10 μg of nonanal in vial dispenser. • Commercial Supplier A lure combined with 20 μg of nonanal in vial dispenser. • Commercial Supplier A lure combined with 40 μg of nonanal in vial dispenser. • Commercial Supplier A lure combined with 80 μg of nonanal in vial dispenser.
as §1

FAW males = test: No-choice linear olfactometer behavioral assay; format: in vivo, Spodoptera frugiperda
Experimental: Behavioral Assay: A no-choice linear olfactometer assay was used to test the behavior of FAW males to different formulations. The olfactometer consists of a linear Plexiglas® tube (n=6 cm i.d., length=145 cm) that was connected to an air pump that generated an internal airflow speed of 0.1 m/s. A short Plexiglas® chamber filled with activated charcoal was connected to the opposite end of the olfactometer to filter the inward air. […] An aliquot of […] was added to a piece of filter paper and solvent was left to evaporate for 30 min at room temperature. Filter papers were introduced to the olfactometer through an opening (0=2 cm) on the top of the olfactometer, 4 cm away from the charcoal filter. Filter papers were tested only once. Moths were tested for 5 minutes and the sequence of their behavioral response was recorded as: activation (wing fanning and start moving upwind), reaching the half-way point of the olfactometer (HW), close approach to the odor source (CA), and source contact (contact). The experiment was conducted 4-7 hours into the scotophase.
The tested formulations were: […]
as §1

antenna of FAW males = test: GC-EAD electrophysiology of female pheromone gland extract on male antenna; design: species or system Spodoptera frugiperda; conditions: 1 μl female pheromone gland extract
Experimental: Electrophysiology: The sex pheromone gland of ten 3-4-day old FAW females was dissected and placed in a glass insert containing 30 μl hexane (SupraSolv®; MilliporeSigma, Burlington, Mass., United States of America). After 10 min, the hexane extract was transferred to a second insert and concentrated down to 10 μl under a gentle flow of nitrogen. A gas chromatograph coupled to an electroantennogram detector (GC-EAD) was used to identify biologically active compounds that are perceived by the antenna of FAW males, since the antenna is the main olfactory organ of insects. The GC separates chemical mixes into individual compounds and directs them to the insect antenna, which is connected to an amplifier, the EAD. In parallel to the GC, the electrophysiological response of the antenna is recorded to identify the active compounds. An aliquot of 1 μl of the pheromone gland extract was injected in the GC-EAD where a male FAW antenna was mounted. Clean hexane that was handled in the same manner without glands was used as control.

[3] = nonanal at all doses (0.05, 0.1, 1% relative to 100 ng Z9-14:OAc) added to 2-component formulation, N=15

For `CCCCCCCCC=O` [nonanal], the “trap catch” value (male FAW [1]; 0.1% nonanal (0.1 μg) added to 100 μg Z9-14:OAc + 0.58 μg Z7-12:OAc, cotton field) was “intermediate trap catch between the pheromone mix alone and with the addition of 1% nonanal”, the “improvement of male catches compared to the pheromone mix alone” value (male FAW [1]; 1% nonanal (1 μg) added to 100 μg Z9-14:OAc + 0.58 μg Z7-12:OAc, cotton field) was 155% and the “number of males caught per day” value (male FAW [1]; 1% nonanal added to 100 μg Z9-14:OAc + 0.58 μg Z7-12:OAc, cotton field, three traps, six days) was “highest number of males caught”. The “nonanal percentage (compared to Z9-14:OAc) that rendered the highest number of trap catches in the field” value (male FAW [1]; field assays) was 1 % (weight/weight), the “numbers of male FAW in traps” value (male FAW [1]; nonanal 0.1 and 1 μg added to 100 μg Z9-14:OAc + 0.58 μg Z7-12:OAc, cotton field) was “significantly increased the numbers of male FAW in traps” and the “male catches per day, more than the pheromone alone” value (male FAW [1]; second assay: 1% nonanal added to 1 mg Z9-14:OAc + 5 μg Z7-12:OAc, cotton field) was 100%. The “number of males caught per day” value (male FAW [1]; second assay: 1% nonanal added to pheromone mix (1 mg Z9-14:OAc), cotton field, nine days) was “highest number of male catches per day; also recorded: highest number of males caught”, the “number of males caught” value (male FAW [1]; second assay: 2% nonanal added to pheromone mix (1 mg Z9-14:OAc), cotton field) was “decreased the number of males caught and was not significantly different from the pheromone formulation alone” and the “number of males caught” value (male FAW [1]; second assay: 4% nonanal added to pheromone mix (1 mg Z9-14:OAc), cotton field) was “decreased the number of males caught and was not significantly different from the pheromone formulation alone”. The “trap catch” value (male FAW [1]; second assay: nonanal alone (1% and 4%), no pheromone mix, cotton field) was “did not yield any catch; also recorded: did not catch any males”, the “increase of trap catches compared to commercial lure alone” value (male FAW [2]; 20 μg (1%) nonanal added to Commercial Supplier A lure, sorghum field) was 46.5% and the “increase of trap catches compared to commercial lure alone” value (male FAW [2]; 20 μg (1%) nonanal added to Commercial Supplier B lure, sorghum field) was 53%. The “number of males caught per day” value (male FAW [2]; 20 μg nonanal added to Commercial Supplier A and B lures, sorghum field, four traps per treatment) was “significantly increased the number of males caught per day compared to the commercial lures alone”, the “number of males caught per day” value (male FAW [2]; second study (FIG. 6): nonanal added to Commercial Supplier A (Scentry) lure, sorghum field, five days) was “significantly increased the number of males caught compared to the commercial lures alone” and the “number of males caught compared to the commercial lure alone” value (male FAW [2]; second study: 80 μg (4%) nonanal added to Commercial Supplier A lure, sorghum field) was 52.4%. The “trap catches” value (male FAW [2]; second study: 1% nonanal added to Commercial Supplier A lure) was “only slightly increased the trap catches”, the “trap catches” value (male FAW [2]; second study: 2% nonanal added to Commercial Supplier A lure) was “only slightly increased the trap catches” and the “trap catch” value (male FAW [2]; second study: 8% nonanal added to Commercial Supplier A lure) was “decreased trap catch”. The “males that reached the pheromone source” value (FAW males; 1% nonanal (1 ng) added to 2-component formulation (Formulation #4), N=15) was 100%, the “effect on attraction / pheromone-triggered response of males” value (FAW males; nonanal 0.05, 0.1, 1% added to 2-component formulation, olfactometer) was “enhanced the attraction of male FAW” and the males activated (FAW males; [3]) was 100%. For the same molecule, the “males that reached the pheromone source” value (FAW males; [3]) was “more than 66%” and the “antennal (EAD) response” value (antenna of FAW males) was “active; also recorded: robust antennal responses”.
